# Test results taken from publication PMC12693182, “Synthesis and QSAR Studies of Claramine Derivatives, a New Class of Broad-Spectrum Antimicrobial Agents” (Molecules, 2025).
# Experiments:
# [1] = test system: Chinese hamster Ovary cells (CHO-K1); assay: Cytotoxicity assay (WST-1 / Neutral Red); assay type: cell-based; conditions: Cricetulus griseus, 24 h, 24-h incubation
# Description: The cytotoxic activities of compounds were assessed on Chinese hamster Ovary cells (CHO-K1) provided from ATCC-LGC Standards Sarl (Molsheim, France). Cells were maintained in Mc Coy’s 5A (CHO) medium supplemented with 10% bovine calf serum, 2 mM glutamine, and 100 U mL^−1/10 µg mL^−1 penicillin/streptomycin mixtures. For the cytotoxicity experiments, they were seeded in 96-well plates and incubated at 37 °C in humidified atmosphere containing 5% CO2 overnight, then concentrations of compounds were incorporated in triplicate cultures. After a 24-h incubation period at 37 °C, cells were submitted to three successive washes in phosphate buffer saline (PBS) and cell viability was evaluated by two different vital dyes: • i. A first set of cell cultures was incubated in PBS containing 10% WST-1 for 30 min at 37 °C, 5% CO2. Cell viability was evaluated by the assessment of WST-1 absorbance at 450 nm in a microplate spectrophotometer. • ii. A second set of cell cultures was placed into Neutral Red medium (50 μg mL^−1 Neutral Red in complete medium) and incubated for 3 h at 37 °C, 5% CO2. Then the Neutral Red medium was removed and the distaining solution (50% ethanol, 1% acetic acid, 49% distilled water; 50 µL per well) was added into the wells. The plates were shaken for 15–20 min at room temperature in the dark. Cell viability was evaluated by the assessment of absorbance at 540 nm in a microplate spectrophotometer.
# Results were expressed as percentages of cell viability about the control (culture medium-only), which corresponded to 100% cell viability. Dose-response curves were calculated by non-linear regression analysis with TableCurve 2D software (V 5.0.1) (Systat Software Inc., San Jose, CA, USA). The Inhibitory Concentration 50% (IC50) was defined as the concentration of compounds that induced a 50% decrease of viable cells.
# [2] = test system: S. aureus 340 and P. aeruginosa 1051575; assay: MIC against S. aureus and P. aeruginosa strains (Figure 6); assay type: cell-based; conditions: range over both strains, C-24 methyl ester series
# Description: Antimicrobial activity of the compounds was studied by determination of minimal inhibitory concentrations (MIC) according to the NCCLS guidelines M7-A2 using the microbroth dilution methods. The bacteria strains were grown on trypticase soy agar (Becton Dickinson) at 37 °C for 24 h. Inocula were prepared in TCE (tryptone 0.1%, […], wt/vol) by ajusting the turbidity at 623 nm to obtain 1–3 10^5 CFU/mL.
# Antimicrobial activities of the compounds were determined by using a broth microdilution method performed in sterile 96-well microplates. All compounds were solubilized in water at a concentration of 10 mM and were transferred to each microplate well in order to obtain a two-fold serial dilution in 100 µL of broth and 100 µL of inoculum containing 2–6 10^5 CFU of each bacterium were added to each well. Some wells were reserved for positive controls and inoculum viability.
SMILES,IC50 [1],MIC [2]
COC(=O)CCC(C)C1CCC2C3CCC4CC(NCCCNCCCCNCCCN)CCC4(C)C3CC(O)C12C (centres unmarked) [Claramine A05],8 µg/mL,2 to 4 µg/mL
COC(=O)CCC(C)C1CCC2C3CCC4CC(NCCCCCN)CCC4(C)C3CC(O)C12C (centres unmarked) [Claramine A12],,6 to 50 µg/mL
COC(=O)CCC(C)C1CCC2C3CCC4CC(NCCCCN)CCC4(C)C3CC(O)C12C (centres unmarked) [Claramine A11],,6 to 50 µg/mL
COC(=O)CCC(C)C1CCC2C3CCC4CC(NCCCN(CCCN)CCCN)CCC4(C)C3CC(O)C12C (centres unmarked) [Claramine A17],,7 to 14 µg/mL
